Results on two compounds are retold here after patent US20100209345A1, “Fluorinated Ligands for Targeting Peripheral Benzodiazepine Receptors” (Australian Nuclear Science & Technology Organisation, priority 2006, published 2010).

Data set [1] addresses T1, peripheral benzodiazepine receptors (Rattus norvegicus, UniProt P16257).
T1 construct: high uptake in the tissues which have known PBR sites; from tissue; host or cells: organs of living SD rats (brain and peripheral tissues), in vivo
Kind of data set: In vivo blocking / competition of tracer uptake by pre-treatment with PBR and CBR ligands. As to conditions: rats; for Tracer uptake after pre-treatment with PK 11195 / Tracer uptake in the adrenals after pre-treatment with PK 11195: PK 11195 1 mg/kg 5 min prior to tracer; for Tracer uptake after pre-treatment with PK 11195 / Tracer uptake after pre-treatment with Ro 5-4864: PBR-expressing tissues (brain/peripheral organs, adrenals apart); for Tracer uptake after pre-treatment with Ro 5-4864 / Tracer uptake in the adrenals after pre-treatment with Ro 5-4864: Ro 5-4864 1 mg/kg 5 min prior to tracer; for Tracer uptake after pre-treatment with flumazenil (central benzodiazepine ligand): flumazenil 1 mg/kg 5 min prior to tracer, brain or peripheral organs; for Tracer uptake after pre-treatment with the non-radioactive analogue: non-radioactive analogue 1 mg/kg, PBR-expressing tissues. In outline:
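SD rats received PBR ligands PK11195 or Ro 5-4864, or the CBR ligand flumazenil, at 1 mg/kg 5 min before tracer injection. Brain and peripheral tissue uptake analysed at 15, 30 min, 1 and 4 h p.i.; significance set at p<0.05 and p<0.01 versus normals or controls.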

For data set [2], the target named is T2, peripheral benzodiazepine binding site (Rattus norvegicus, UniProt P16257).
T2 construct: diluted kidney membrane preparation (200 μg); from tissue; host or cells: kidney membrane preparation
Kind of data set: In vitro binding, [3H]-PK11195, kidney membrane preparation. The following applies: PBR IC50 (nM), [3H]-PK11195 (2 nM), 4° C., 1 h. How it is done: Non-specific binding was determined with PK11195 (10 μM).
Non-specific binding was determined with Flumazenil (20 μM). In both cases, incubations were terminated by rapid filtration through Whatman GF/B glass fibre. Filters were immediately washed 3 times with 5 mL ice-cold 50 mM Tris/HCl at pH 7.4. Filters were counted in a β-scintillation counter (Packard) to measure the amount of bound radioactivity. The IC50 of the compounds for the peripheral benzodiazepine binding site and the central benzodiazepine receptor were calculated using Kell 6 software.

The target of data set [3] is central benzodiazepine receptors. Kind of data set: In vitro binding, [3H]-Flumazenil, brain cortex membrane preparation. As to conditions: [3H]-Flumazenil (2 nM), 25° C., 45 min, read-out: CBR IC50. In outline:
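Brain cortex membranes bound with [3H]-flumazenil; non-specific binding defined by 20 μM flumazenil. Filtration on GF/B, washes in ice-cold 50 mM Tris/HCl pH 7.4, bound counts by scintillation, IC50 derived from displacement.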

Usually IC50 stands for the point on the concentration scale where inhibition reaches its midpoint. For orientation: chromatographic logP means lipophilicity estimated from chromatographic retention. Lower therefore signals a more hydrophilic compound.

Entries after “also recorded” stand apart in the source; their conditions may differ.

As to `CCN(CC)C(=O)Cc1c(-c2ccc(OCCF)cc2)nc2ccc(Cl)cn12` [PBR102, 2-(2-(4-(2-fluoroethoxy)phenyl)-6-chloroimidazo[1,2-a]pyridin-3-yl)-N,N-diethylacetamide], in data set [1], the “Tracer uptake after pre-treatment with PK 11195” value is “decreased”, the “Tracer uptake in the adrenals after pre-treatment with PK 11195” value is reported as “increase”, the “Tracer uptake after pre-treatment with Ro 5-4864” value is recorded as “decreased” and the “Tracer uptake in the adrenals after pre-treatment with Ro 5-4864” value is “increase”. Besides, in data set [1], the “Tracer uptake after pre-treatment with flumazenil (central benzodiazepine ligand)” value (“Tracer uptake … (central benzodiazepine ligand)” for short) is given as “no effect” and the “Tracer uptake after pre-treatment with the non-radioactive analogue” value is recorded as “blocking effect”. Besides, in data set [1] (listed as [^18F]PBR102), the “Tracer uptake after pre-treatment with PK 11195” value is “blocking effect”, the “Tracer uptake after pre-treatment with Ro 5-4864” value is recorded as “blocking effect” and the “Tracer uptake … (central benzodiazepine ligand)” value is given as “does not reduce”. In addition, in data set [2], the IC50 stood at 13.2 nM. Besides, the chromatographic logP in “LogP HPLC” is 2.7 ± 0.09. The concentration for half-maximal inhibition (IC50) in data set [3] amounted to 1560 nM.
As for `CCN(CC)C(=O)Cc1c(-c2ccc(OCCCF)cc2)nc2ccc(Cl)cn12` [PBR111, 2-(2-(4-(3-fluoropropoxy)phenyl)-6-chloroimidazo[1,2-a]pyridin-3-yl)-N,N-diethylacetamide], in data set [1] (1 mg/kg 5 min prior to tracer, olfactory regions), the “Tracer uptake in the olfactory regions after pre-treatment with PK 11195 and Ro 5-4864” value was “non-significant decrease”. Also, in data set [1], the “Tracer uptake after pre-treatment with PK 11195” value is recorded as “decreased”, the “Tracer uptake in the adrenals after pre-treatment with PK 11195” value is reported as “increase”, the “Tracer uptake after pre-treatment with Ro 5-4864” value is recorded as “decreased” and the “Tracer uptake in the adrenals after pre-treatment with Ro 5-4864” value was “increase”. Also, in data set [1], the “Tracer uptake … (central benzodiazepine ligand)” value is recorded as “no effect”. In data set [1] (listed as [^18F]PBR111), the “Tracer uptake after pre-treatment with PK 11195” value is listed as “reduced uptake; also recorded: blocking effect”, the “Tracer uptake after pre-treatment with Ro 5-4864” value was “reduced uptake; also recorded: blocking effect”, the “Tracer uptake … (central benzodiazepine ligand)” value was “does not compete; also recorded: does not reduce” and the “Tracer uptake after pre-treatment with the non-radioactive analogue” value is recorded as “reduced uptake; also recorded: blocking effect”. The IC50 in data set [2] came to 7.5 nM. The chromatographic logP in “LogP HPLC” is 3.2 ± 0.1. Moreover, the IC50 in data set [3] came to 1590 nM.
